The source of these data is patent US5606037A, “Processes antineoplastic heteronaphthoquinones” (BioChem Pharma Inc., priority 1995, dated 1997).

Common to all, as to type: cell-based, Human
Experiment [1] relates to Lox (Melanoma). Briefly: In vitro cytotoxicity, microculture tetrazolium (MTT) assay, LOX. As to conditions: Homo sapiens, 48 h with compound, further 48 h, Table 1. The method, boiled down: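 LOX melanoma cells, 1,500–4,000 per well, exposed to compound (1:3 dilutions, 100 μM to 1.7 nM) for 48 h at 37° C., then 48 h in fresh medium. MTT reduction read at 570 nm; four-parameter logistic fit normalized to 0–100% survival.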

Experiment [2] has as its system SKVLB (Ovarian; multidrug resistant). Briefly: In vitro cytotoxicity, microculture tetrazolium (MTT) assay, SKVLB. As to conditions: Homo sapiens; SKVLB multidrug resistant ovarian; 48 h with compound, further 48 h, MTT; Table 1. The method in brief:
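Multidrug-resistant SKVLB ovarian cells, 1,500–4,000 per well, exposed to compound (1:3 dilutions, 100 μM to 1.7 nM, quadruplicate) for 48 h at 37 °C, then 48 h in fresh medium. Viability by MTT reduction, formazan read at 570 nm; four-parameter logistic fit on a 0–100% survival scale.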

Experiment [3] relates to T47D (Ductal carcinoma of breast). The experiment is described as follows: In vitro cytotoxicity, microculture tetrazolium (MTT) assay, T47D. As to conditions: Homo sapiens, 48 h with compound, further 48 h, Table 1. The method, boiled down:
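Adherent cells (1,500-4,000/well) were exposed to compound in 1:3 dilutions from 100 μM to 1.7 nM, in quadruplicate, for 48 h at 37° C, followed by 48 h in fresh medium. MTT formazan was read at 570 nm, and data were fitted by four-parameter logistic on a 0-100% survival scale.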

Experiment [4] concerns SKOV3 (Ovarian adenocarcinoma). Briefly: In vitro cytotoxicity, microculture tetrazolium (MTT) assay, SKOV3. As to conditions: Homo sapiens, SK-OV-3; SKOV3 ovarian adenocarcinoma; 48 h with compound, further 48 h, MTT; Table 1. The method in brief:
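Cells plated overnight, then exposed to compound (1:3 dilutions, 100 μM to 1.7 nM, quadruplicate) 48 h at 37 °C, followed by 48 h in fresh medium. MTT 4 h, formazan extracted in DMSO/Sorensen's buffer pH 10.5, A570; four-parameter logistic fit on 0–100% survival scale.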

The subject of experiment [5] is HT 29 (Colon adenocarcinoma). Briefly: In vitro cytotoxicity, microculture tetrazolium (MTT) assay, HT29. The settings on record: Homo sapiens, HT-29, 48 h with compound, further 48 h, Table 1. The method, boiled down: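 HT29 cells exposed to compound (1:3 series, 100 μM to 1.7 nM, quadruplicate) for 48 h at 37 °C, then 48 h in fresh medium. Viability by MTT reduction, formazan absorbance at 570 nm; four-parameter logistic fit on 0-100% survival scale.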

The structures appear in SMILES notation. Where a name gives a salt, the structure may show the parent alone.

What is called IC50 is the point on the concentration scale where inhibition reaches its midpoint. Consider `CC(=O)C1CC2=C(C(=O)c3ccccc3C2=O)C(O)O1` (stereo not drawn) [BCH1148, Methyl (1-hydroxy-5,10-dioxo-3,4,5,10-tetrahydronaphtho [2,3-C]pyran-3-yl) ketone], for which the IC50 in experiment [1], in experiment [2], in experiment [3], in experiment [4] and in experiment [5] was above 100 µM throughout.
As for `CC(=O)O[C@@H]1[C@H](C)O[C@@H](O[C@@H]2O[C@@H](C(C)=O)CC3=C2C(=O)c2ccccc2C3=O)C(Br)[C@@H]1OC(C)=O` (stereo partly drawn) [BCH2099, (1'S,1S,3R)-methyl-(1-[2',6'-dideoxy-3',4'-diacetoxy-2'-bromo-L-lyxohexopyranose]-5,10-dioxo-3,4,5,10-tetrahydronaphtho-[2,3-c]-pyran-3-yl) ketone], the IC50 in experiment [1] is 0.128 to 1.1 µM; in experiment [2] it was 0.462 to 8.4 µM; in experiment [3], 0.728 to 3.4 µM; in experiment [4], 0.599 to 2 µM; in experiment [5] it was 0.303 to 1.7 µM.
As to `CC(=O)[C@@H]1CC2=C(C(=O)c3ccccc3C2=O)[C@@H](O[C@@H]2O[C@@H](C)[C@@H](O)[C@@H](NC(=O)C(F)(F)F)C2I)O1` (stereo partly drawn) [BCH2023, (1'S,1R,3S)-methyl-(1-[2',3',6'-trideoxy-2'-iodo-3'-trifluoroacetamido-4'-hydroxy-L-lyxohexopyranose]-5,10-dioxo-3,4,5,10-tetrahydronaphtho-[2,3-c]-pyran-3-yl) ketone], the IC50 in experiment [1] was 0.67 µM; in experiment [2], 3.2 µM; in experiment [3], 5.5 µM; in experiment [4] it was 0.73 µM; in experiment [5] it was 0.98 µM.
In the case of `CC(=O)[C@H]1CC2=C(C(=O)c3ccccc3C2=O)[C@H](O[C@@H]2O[C@@H](C)[C@@H](O)[C@@H](NC(=O)C(F)(F)F)C2I)O1` (stereo partly drawn) [BCH2022, (1'S,1S,3R)-methyl-(1-[2',3',6'-trideoxy-2'-iodo-3'-trifluoroacetamido-4'-hydroxy-L-lyxohexopyranose]-5,10-dioxo-3,4,5,10-tetrahydronaphtho-[2,3-c]-pyran-3-yl) ketone], the IC50 in experiment [1] stood at 0.484 µM; in experiment [2], 1.87 µM; in experiment [3], 0.934 µM; in experiment [4], 0.442 µM; in experiment [5], 0.532 µM.
With `COC(=O)[C@]1(C)CC2=C(C(=O)c3ccccc3C2=O)[C@@H](O[C@H]2C[C@H](NC(=O)C(F)(F)F)[C@H](O)[C@H](C)O2)O1` [BCH2077, (1'S, 1R, 3S)-1-(3-trifluoroacetamido-2',3',6'-trideoxy-L-lyxohexopyranose)-3-methoxycarbonyl-3-methyl-3,4,5,10-tetrahydro-5,10-dioxo-1H-naphtho-[2,3-c]pyran], the IC50 in experiment [1] came out at 1.91 µM; in experiment [2] it was 21 µM; in experiment [3], 7.7 µM; in experiment [4], 1.94 µM; in experiment [5] it was 3.4 µM.
Consider `COC(=O)[C@]1(C)CC2=C(C(=O)c3ccccc3C2=O)[C@H](O[C@H]2C[C@H](NC(=O)C(F)(F)F)[C@H](O)[C@H](C)O2)O1` [BCH2081, (1'S, 1S, 3S)-1-(3'-trifluoroacetamido-2',3',6'-trideoxy-lyxohexopyranose)-3-methoxycarbonyl-3-methyl-5,10-dioxo-4,5,10-trihydro-1H-naphtho-[2,3-c]-pyran], for which the IC50 in experiment [1] was 2.7 µM; in experiment [2], 19 µM; in experiment [3] it was 7.4 µM; in experiment [4], 1.3 µM; in experiment [5], 3.8 µM.
On to `CC(=O)C1CC2=C(CO1)C(=O)c1ccccc1C2=O` (stereo not drawn) [BCH1125, Methyl (5,10-dioxo-3,4,5,10-tetrahydronaphtho [2,3-C]pyran-3-yl) ketone], for which the IC50 in experiment [1] was 52.8 µM; in experiment [2], 92.9 µM; in experiment [3] it was 36.4 µM; in experiment [4], above 100 µM; in experiment [5], above 100 µM.
On to `CC(=O)C1CC2=C(C(=O)c3ccccc3C2=O)C(OCC2CCCN(C(=O)OC(C)(C)C)C2)O1` (mixture of isomers) [BCH2060, Methyl-(1-O-[N-BOC-3-piperidinemethanol]-5,6-dioxo-3,4,5,10-tetrahydronaphthaleno-[2,3-c]pyran-3-yl) ketone], for which the IC50 in experiment [1] is 1.95 µM; in experiment [2], 2.5 µM; in experiment [3], 0.562 µM; in experiment [4], 1.14 µM; in experiment [5], 0.26 µM.
In the case of `CC(=O)CC1CC2=C(C(=O)c3cccc(O)c3C2=O)C(O[C@H]2C[C@H](NC(=O)C(F)(F)F)[C@H](O)[C@H](C)O2)O1` (mixture of isomers) [BCH2098, (1'-S, 1-S, 3-R) and (1'-S, 1-R, 3-S)-1-(6-hydroxy-1-(2',3',6'-trideoxy-3'-trifluoroacetamido, 4-hydroxy-L-lyxopyranose)-5,10-dioxo-3,4,5,10 tetrahydronaphtho-[2,3-c]pyran-3-yl) propane-2-one], the IC50 in experiment [1] came to 4.2 µM; in experiment [2], 30 µM; in experiment [3], 10 µM; in experiment [4], 8 µM; in experiment [5], 17 µM.
Consider `COC(=O)[C@@H](N)COC1OC(C(C)=O)CC2=C1C(=O)c1ccccc1C2=O` (mixture of isomers) [BCH1654, (1S, 2'S, 3R) and (1R, 2'S, 3S)-methyl-(1-[O-serinemethyl ester]-5,10-dioxo-3,4,5,10-tetrahydronaphtaleno[2,3-C]pyran-3-yl) ketone hydrochloride], for which the IC50 in experiment [1] stood at 1.19 µM; in experiment [2], 3.73 µM; in experiment [3] it was 1.59 µM; in experiment [4], 0.71 µM; in experiment [5], 3.58 µM.
For `COC(=O)C1=CC2=C(C(=O)c3ccccc3C2=O)C(OC)O1` (stereo not drawn) [BCH2160, 1-methoxy-3-methoxy carbonyl-5,10-dioxo-5,10-dihydro-1H-naphtho-[2,3-c]-pyran], in that order: 7.43 µM, 9.12 µM, 9.59 µM, 4.93 µM and 15.7 µM.
As to `CC(=O)C1CC2=C(CO1)C(=O)c1ccc(O)cc1C2=O` (stereo not drawn) [BCH1129, Methyl (7-hydroxy-5,10-dioxo-3,4,5,10-tetrahydronaphtho [2,3-C]pyran-3-yl) ketone], the IC50 in experiment [1] is 88.2 µM; in experiment [2], above 100 µM; in experiment [3], 59.4 µM; in experiment [4], 73.3 µM; in experiment [5] it was 63.2 µM.
As for `CC(=O)[C@@H]1CC2=C(C(=O)c3ccccc3C2=O)[C@@H](O[C@H]2C[C@H](NC(=O)C(F)(F)F)[C@H](O)[C@H](C)O2)S1` [BCH2037, (1'S,1S,3S)-1-(3'-trifluoroacetamido-2',3',6'-trideoxy-L-lyxohexopyranose)-5,10-dioxo-3,4,5,10-tetrahydro-1H-naphtho-[2,3-c]-thiopyran], the IC50 in experiment [1] lay in the range of 0.54 to 0.816 µM; in experiment [2] it was 3.8 to 4.73 µM; in experiment [3] it was 2.2 to 2.29 µM; in experiment [4] it was 0.59 to 5.09 µM; in experiment [5], 1.1 to 4.25 µM.
For `CC(=O)O[C@@H]1[C@H](C)O[C@@H](O[C@H]2O[C@H](C(C)=O)CC3=C2C(=O)c2ccccc2C3=O)C(Br)[C@@H]1OC(C)=O` (stereo partly drawn) [BCH2100, (1'S,1R,3S)-methyl-(1-[2',6'-dideoxy-3',4'-diacetoxy-2'-bromo-L-lyxohexopyranose]-5,10-dioxo-3,4,5,10-tetrahydronaphtho-[2,3-c]-pyran-3-yl) ketone], in that order: 3 µM, 8.22 µM, 4 µM, 2.7 µM and 5.12 µM.
`Nc1nc(C2CC3=C(CO2)C(=O)c2ccccc2C3=O)cs1` (stereo not drawn) [BCH1189]: the IC50 worked out at 14.3 µM in experiment [1]; 26.6 µM in experiment [2]; 12.5 µM in experiment [3]; 6.5 µM in experiment [4]; 16.6 µM in experiment [5].
As to `CO[C@@H]1O[C@H](C(=O)Nc2ccccc2)CC2=C1C(=O)c1ccccc1C2=O` (relative stereo) [BCH2042, (1,3-cis)-anline-(1-methoxy-5,10-dioxo-3,4,5,10-tetrahydro-1H-naphtho-[2,3-c]-pyran)-3-carboxamide], the IC50 is 2.22 µM in experiment [1]; 13.2 µM in experiment [2]; 8 µM in experiment [3]; 3.8 µM in experiment [4]; 1.2 µM in experiment [5].
`COC1OC(C(C)=O)=CC2=C1C(=O)c1ccccc1C2=O` (stereo not drawn) [BCH2129, 3-Aceto-5,10-dioxo-1-methoxy-5,10-dihydro-1H-naphtho-(2,3-c)-pyran]: the IC50 in experiment [1] is 0.228 µM; in experiment [2] it was 1.06 µM; in experiment [3], 0.452 µM; in experiment [4], 0.359 µM; in experiment [5], 2.07 µM.
Take `COCC1(COC)CC2=C(C(=O)c3ccccc3C2=O)[C@H](O[C@H]2C[C@H](NC(=O)C(F)(F)F)[C@H](O)[C@H](C)O2)O1` [BCH1697]: the IC50 in experiment [1] is 5.32 µM; in experiment [2], 13.2 µM; in experiment [3] it was 18 µM; in experiment [4], 3.7 µM; in experiment [5], 11 µM.
